{"source": "patent US20230066011A1", "about": "“PYRROLOPYRIMIDINE DERIVATIVE, AND PHARMACEUTICAL COMPOSITION FOR PREVENTING OR TREATING PROTEIN KINASE-RELATED DISEASE COMPRISING SAME AS ACTIVE INGREDIENT” (VORONOI CO., LTD., priority 2019, published 2023)", "tested_on": "THP-1 cells", "assay": "THP-1 GI50 (Table 4, cytokine secretion experiment)", "type": "cell-based", "conditions": "Homo sapiens"}
{"smiles": "O=C(c1ccc(Nc2nc(NC3CCCC3)c3c(C(F)(F)F)c[nH]c3n2)c2c1OCCO2)N1CCN(C2COC2)CC1", "note": "[Example 414, (8-((4-(cyclopentyl-amino)-5-(trifluoromethyl)-7H-pyrrolo[2,3-d]pyrimidin-2-yl)amino)-2,3-dihydrobenzo[b] [1,4]dioxin-5-yl) (4-(oxetan-3-yl)piperazin-1-yl)methanone]", "values": [{"measurement": "GI50", "value": 4.16, "unit": "µM"}]}
